Here are results for three compounds from the NIST ThermoML archive (doi:10.1021/je200279q).

The conditions of series [1]: 298.15 K; 101.33 kPa; Liquid; Pycnometric method.
Series [2] in a line: refractive index (Na D-line) (dimensionless). As to conditions: 298.15 K; 101.33 kPa; Liquid; Standard Abbe refractometry.

Numbers after ± are expanded uncertainties.

Take `CCCCO` [butan-1-ol]: the mass density in series [1] came out at 805.8 ± 0.7 kg/m3. For the same compound, the refractive index in series [2] came to 1.3973 ± 0.0007.

Turning to `CC(C)CC(C)(C)C` [2,2,4-trimethylpentane], the mass density in series [1] is listed as 687.5 ± 0.7 kg/m3. For the same compound, the refractive index in series [2] is reported as 1.3892 ± 0.0008.

Take `CCCO` [propan-1-ol]: the mass density in series [1] is 799.5 ± 0.7 kg/m3. In series [2], the refractive index is 1.3833 ± 0.0007.
